Assays:
[1] = Fluorescence quantum yield in DMF; assay type: physicochemical; settings: excited at 610 nm, relative to ZnPc (ΦF = 0.28 in DMF)
Text: The electronic absorption and fluorescence spectra of PMB 1 were first recorded in DMF and compared with those of the components 8 and 11, as well as the non-cleavable analogue 14 (Figure S2 and Table 1). […] In contrast, the fluorescence spectra of 1 and 14 were remarkably different from that of DSBDP 8.

MMP-2 and cathepsin B = experiment: Dual-enzyme (sequential MMP-2 then cathepsin B) activation: fluorescence, singlet oxygen, LC-MS; assay type: biochemical; settings: for singlet oxygen generation (DPBF decay at 417 nm) after enzyme treatment: DPBF 30 μM, sequential MMP-2 and cathepsin B, irradiation λ > 610 nm, 300 s
Method: To study the dual-enzyme-activated effect, PMB 1 was first treated with MMP-2 (2 μg mL^–1) in PBS for 6 h, followed by the addition of NaOAc, EDTA, and GSH and adjustment of the pH to 5.0 to create a working environment for cathepsin B. This enzyme (1 unit mL^–1) was then added, and the mixture was stirred for a further 19 h. […] The intensity at 25 h was almost the same as that at 24 h, which could be regarded as full activation, arising from the complete separation of the two components. In contrast, the absorption and fluorescence spectra of 14 remained unchanged upon this treatment (Figure S10).
The fluorescence recovery was then determined for 1 under the aforementioned conditions, assuming that the fluorescence intensity of 8 at the same concentration in the same medium was the maximum fluorescence intensity that could be recovered. The results are depicted in Figure 3c. […] In addition, we also determined the corresponding on/off ratios by dividing the fluorescence intensity at 25 h by the initial fluorescence intensity under each of these conditions. […] For 14, the ratios were below 1.5 under all the conditions, showing that the effect of the two enzymes was negligible for this conjugate.
Apart from the activation in fluorescence emission, the activation of 1 in singlet oxygen generation was also studied. PMB 1 (1 μM) was treated with MMP-2 and/or cathepsin B as described above and then mixed with DPBF (30 μM). The absorption spectra of these mixtures were monitored during light irradiation (λ > 610 nm) over a period of 300 s. […] The decrease in absorbance became more substantial for 1 after the treatment with both enzymes. As expected, the changes were negligible for 14 under all conditions (Figure S12).
To study the dual-enzyme-activated effect, PMB 1 was treated with MMP-2 (for 6 h) and cathepsin B (for 19 h) sequentially as mentioned above. […]
where W and Iabs are the DPBF photobleaching rate and the rate of light absorption, […]
MMP-2 and Cathepsin B-Responsive Spectroscopic Studies
Compound 1 or 14 was dissolved in DMF to form a 1 mM stock solution, which was then diluted to 1 μM with PBS at pH 7.4 or buffer solution (pH 5.0, 25 mM NaOAc, 1 mM EDTA, 500 μM GSH), both in the presence of 0.1% Tween 80 (v/v) . For the MMP-2-responsive studies, the solutions in PBS were treated with MMP-2 (2 μg mL-1). For the cathepsin B-responsive studies, the solutions in buffer solution were treated with cathepsin B (1 unit mL-1). For the dual-enzyme-responsive studies, the solutions in PBS were first treated with MMP-2 (2 μg mL-1) for 6 h, followed by the treatment with cathepsin B (1 unit mL-1) after the addition of NaOAc, EDTA, and GSH and adjustment of the pH, turning into the conditions of the buffer solution.
All of the solutions were stirred continuously at 37 °C. The ir electronic absorption and fluorescence spectra were monitored over a period of 25 h.
MMP-2- and Cathepsin B-Responsive Singlet Oxygen Generation Studies […]
halogen lamp after passing through a water tank for cooling and a color glass filter (Newport) cut-on at λ = 610 nm. The decay of DPBF at λ = 417 nm was monitored with a spectrophotometer during the irradiation period. […]
According to the above procedure, 1 and 14 were treated with MMP-2 and cathepsin B. After a period of 25 h, MeOH was added into the solutions for precipitating the enzymes. After filtration, the filtrate was analyzed by LC-MS using the aforementioned conditions. […]

SMILES: CCN(CC)c1ccc2nc3ccc(/N=N/c4ccc(N(C)CCCNC(=O)OC[C@@H]5[C@@H]6CCc7nnn(CC(=O)NCCCC[C@@H]8NC(=O)CNC(=O)[C@H](CCCCN)NC(=O)[C@H](CCCNC(=N)N)NC(=O)[C@H](C(C)C)NC(=O)CNC(=O)[C@H](CC(C)C)NC(=O)[C@@H]9CCCN9C(=O)[C@H](CCCCN)NC(=O)[C@@H](N)CSCc9cc(COc%10ccc(C%11=C%12C(C)=C(I)C(/C=C/c%13ccc(OCCOCCOCCOC)cc%13)=[N+]%12[B-](F)(F)n%12c(/C=C/c%13ccc(OCCOCCOCCOC)cc%13)c(I)c(C)c%12%11)cc%10)cc(c9)CSC[C@@H](C(N)=O)NC(=O)[C@H](CCCCN)NC(=O)[C@H](CCCCN)NC(=O)CNC(=O)[C@H](CC(C)C)NC(=O)[C@H](Cc9ccccc9)NC(=O)CNC(=O)[C@H](CCCCN)NC(=O)CNC8=O)c7CC[C@@H]65)cc4)cc3[n+](-c3ccccc3)c2c1 [compound 1]
- ΦF (fluorescence quantum yield) [1]: 0.01
- singlet oxygen generation (DPBF decay at 417 nm) after enzyme treatment (MMP-2 and cathepsin B; 1 μM): turned on remarkably
- on/off ratio (fluorescence intensity at 25 h / initial intensity) (MMP-2 and cathepsin B; 1 μM, MMP-2 6 h then cathepsin B 19 h, 37 °C): 16
- fluorescence recovery (MMP-2 and cathepsin B; 1 μM, MMP-2 (2 μg mL-1) in PBS 6 h, then cathepsin B (1 unit mL-1) pH 5.0 buffer 19 h, 37 °C, relative to 8): 85%
- LC-MS signal of intact compound after enzyme treatment (MMP-2 and cathepsin B; MMP-2 6 h then cathepsin B 19 h, fragments 17 and 18 formed): disappearance of the signal of 1

SMILES: CCN(CC)c1ccc2nc3ccc(/N=N/c4ccc(N(C)CCCNC(=O)OC[C@@H]5[C@@H]6CCc7nnn(CC(=O)NCCCC[C@@H]8NC(=O)CNC(=O)[C@H](CCCCN)NC(=O)CNC(=O)CNC(=O)CNC(=O)CNC(=O)CNC(=O)[C@H](CCCCN)NC(=O)[C@@H](N)CSCc9cc(COc%10ccc(C%11=C%12C(C)=C(I)C(/C=C/c%13ccc(OCCOCCOCCOC)cc%13)=[N+]%12[B-](F)(F)n%12c(/C=C/c%13ccc(OCCOCCOCCOC)cc%13)c(I)c(C)c%12%11)cc%10)cc(c9)CSC[C@@H](C(N)=O)NC(=O)[C@H](CCCCN)NC(=O)[C@H](CCCCN)NC(=O)CNC(=O)CNC(=O)CNC(=O)CNC(=O)[C@H](CCCCN)NC(=O)CNC8=O)c7CC[C@@H]65)cc4)cc3[n+](-c3ccccc3)c2c1 [compound 14]
- ΦF (fluorescence quantum yield) [1]: 0.01
- singlet oxygen generation (DPBF decay at 417 nm) after enzyme treatment (MMP-2 and cathepsin B; 1 μM): negligible

From publication PMC10080691, “Enzyme-Responsive Double-Locked Photodynamic Molecular Beacon for Targeted Photodynamic Anticancer Therapy” (Journal of the American Chemical Society, 2023)
